# Results reported in publication PMC12867150, “A fungi-derived cyclic peptide enhances Th9-mediated antitumor immunity by targeting ZAP70 and SREBP1” (The Journal of Clinical Investigation, 2025).
# “And” between values parts separate entries of the source, which are not always exact repeats. Equal values may be shown once.
# Tested on: TNF-α in human Th9 cells
# Experiment: Flow cytometry of TNF-α in human Th9 cells (Figure 8G)
# Assay type: cell-based
# Procedure: For Th9 polarization, cultures were supplemented with IL-4 (10 ng/mL, PeproTech, catalog AF-200-04), TGF-β (1 ng/mL), and neutralizing anti–IFN-γ monoclonal antibody (10 μg/mL, clone B27, BioXcell, catalog BE0245). After 3 days of initial culture, cells were either collected for downstream assays or continued in extended culture with refreshed cytokines to maintain lineage commitment without antibodies. Th9 cells were collected at days 4, 5, and 6 for subsequent in vitro assays. For adoptive transfer studies, day 4–cultured Th9 cells were washed and prepared for intravenous injection.
# Details regarding staining panels (human and mouse), reagents (including clones and catalog numbers), acquisition settings, compensation/controls, and analysis procedures are provided in Supplemental Methods.
# MH9A4, Biolegend, Cat. No. 507605, PE/Cy7, clone MH9A4, Biolegend, Cat. No. […]
# clone Mab11, Biolegend, Cat. No. 502908), Perforin (APC, clone dG9, Biolegend, Cat.
# Flow cytometric acquisition was performed using a BD Fortessa or Cytek Aurora cytometer. Data were analyzed with FlowJo software (v10.8.1 or newer). Fluorescence compensation, isotype-matched controls, and fluorescence-minus-one (FMO) controls were applied as appropriate for multicolor panel validation.
# Cells were washed twice with PBS and lysed in 1 × lysis buffer (NCM, Cat. No. […]
substance,measurement,setting,value
anteiso-C15 Leu7 surfactin [EpA],TNF-α production in human CD4⁺ T cells (flow cytometric analysis),"Figure 8G, Th9-polarizing conditions, individual replicates, one per column (n = 4)",321000 and 314000 and 322000 and 302000
same,"TNF-α expression, human Th9",result in words,higher TNF-α expression
